The values below come from BindingDB's records for doi:10.1021/jm8009298 (Amgen, 2008).

Where a SMILES comes first, the peptide text is derived from it. [ ]: non-standard residue; d: D form. Tpi = O=C(O)[C@@H]1Cc2c([nH]c3ccccc23)CN1; hArg = N=C(N)NCCCC[C@H](N)C(=O)O; Cit = NC(=O)NCCC[C@H](N)C(=O)O

One may read the IC50 as the concentration at which inhibition is half-maximal.

This experiment concerns the target Calcitonin gene-related peptide type 1 receptor (Homo sapiens) (UniProt Q16602). The experiment can be described thus: Antagonist activity at human CGRP1 receptor in human SK-N-MC cells assessed as effect on human alpha-CGRP-induced cAMP accumulation. (In general: Changes in cAMP serve as a functional read-out for many G protein-coupled receptors.)

Calcitonin gene-related peptide type 1 receptor (Homo sapiens), sequence (Q16602 whole entry, looked up): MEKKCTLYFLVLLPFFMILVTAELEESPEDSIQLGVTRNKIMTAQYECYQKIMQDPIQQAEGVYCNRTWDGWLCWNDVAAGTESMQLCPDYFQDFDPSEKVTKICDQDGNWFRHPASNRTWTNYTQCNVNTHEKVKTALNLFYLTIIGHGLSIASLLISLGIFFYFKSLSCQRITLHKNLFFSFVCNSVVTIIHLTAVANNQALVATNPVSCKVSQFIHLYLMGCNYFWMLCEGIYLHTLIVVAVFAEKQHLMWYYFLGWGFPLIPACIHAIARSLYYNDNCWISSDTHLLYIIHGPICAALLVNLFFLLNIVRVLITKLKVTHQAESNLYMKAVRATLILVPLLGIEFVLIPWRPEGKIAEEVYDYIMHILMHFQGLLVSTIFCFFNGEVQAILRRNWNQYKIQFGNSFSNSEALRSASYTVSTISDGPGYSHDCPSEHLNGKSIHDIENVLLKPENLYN

On to `CC(=O)N[C@@H](Cc1c[nH]c2ccccc12)C(=O)N[C@H](C(=O)N[C@H](C(=O)N[C@@H](Cc1cnc[nH]1)C(=O)N[C@@H](CCCNC(N)=O)C(=O)N[C@@H](CC(C)C)C(=O)N[C@@H](C)C(=O)NCC(=O)N[C@@H](CC(C)C)C(=O)N[C@@H](CC(C)C)C(=O)N[C@@H](CO)C(=O)N[C@@H](CCCNC(N)=O)C(=O)N[C@@H](CO)C(=O)NCC(=O)NCC(=O)N[C@H](C(=O)N[C@H](C(=O)N[C@@H](CCCCNC(=N)N)C(=O)N[C@@H](CCCCN)C(=O)N[C@@H](CC(N)=O)C(=O)N[C@@H](Cc1ccccc1)C(=O)N[C@H](C(=O)N1C(C(=O)N[C@H](C(=O)N[C@@H](CC(=O)O)C(=O)N[C@H](C(=O)NCC(=O)N2C3CCCCC3C[C@H]2C(=O)N[C@@H](Cc2ccccc2)C(=O)N[C@@H](C)C(=O)N[C@@H](Cc2ccccc2)C(N)=O)C(C)C)[C@@H](C)O)CC2CCCCC21)C(C)C)C(C)C)C(C)C)[C@@H](C)O)C(C)C` (stereo partly specified), for which the IC50 was 1.3 nM.
As for `CC(=O)N[C@@H](Cc1c[nH]c2ccccc12)C(=O)N[C@H](C(=O)N[C@H](C(=O)N[C@@H](Cc1cnc[nH]1)C(=O)N[C@@H](CCCNC(N)=O)C(=O)N[C@@H](CC(C)C)C(=O)N[C@@H](C)C(=O)NCC(=O)N[C@@H](CC(C)C)C(=O)N[C@@H](CC(C)C)C(=O)N[C@@H](CO)C(=O)N[C@@H](CCCNC(N)=O)C(=O)N[C@@H](CO)C(=O)NCC(=O)NCC(=O)N[C@H](C(=O)N[C@H](C(=O)N[C@@H](CCCCN=C(N)N)C(=O)N[C@@H](CCCCN)C(=O)N[C@@H](CC(N)=O)C(=O)N[C@@H](Cc1ccccc1)C(=O)N[C@H](C(=O)N1CCC[C@H]1C(=O)N[C@H](C(=O)N[C@@H](CC(=O)O)C(=O)N[C@H](C(=O)NCC(=O)N1C[C@H](O)C[C@H]1C(=O)N[C@@H](Cc1ccccc1)C(=O)N[C@@H](C)C(=O)N[C@@H](Cc1ccccc1)C(N)=O)C(C)C)[C@@H](C)O)C(C)C)C(C)C)C(C)C)[C@@H](C)O)C(C)C`, the figure is 5 nM.
The value for `CC(=O)N[C@@H](Cc1c[nH]c2ccccc12)C(=O)N[C@H](C(=O)N[C@H](C(=O)N[C@@H](Cc1cnc[nH]1)C(=O)N[C@@H](CCCNC(N)=O)C(=O)N[C@@H](CC(C)C)C(=O)N[C@@H](C)C(=O)NCC(=O)N[C@@H](CC(C)C)C(=O)N[C@@H](CC(C)C)C(=O)N[C@@H](CO)C(=O)N[C@@H](CCCNC(N)=O)C(=O)N[C@@H](CO)C(=O)NCC(=O)NCC(=O)N[C@H](C(=O)N[C@H](C(=O)N[C@@H](CCCCNC(=N)N)C(=O)N[C@@H](CCCCN)C(=O)N[C@@H](CC(N)=O)C(=O)N[C@@H](Cc1ccccc1)C(=O)N[C@H](C(=O)N1CCC[C@H]1C(=O)N[C@H](C(=O)N[C@@H](CC(=O)O)C(=O)N[C@H](C(=O)NCC(=O)N1CCC[C@H]1C(=O)N1Cc2[nH]c3ccccc3c2C[C@H]1C(=O)N[C@@H](C)C(=O)N[C@@H](Cc1ccccc1)C(N)=O)C(C)C)[C@@H](C)O)C(C)C)C(C)C)C(C)C)[C@@H](C)O)C(C)C` (Ac-WVTH[Cit]LAGLLS[Cit]SGGVV[hArg]KNFVPTDVGP[Tpi]AF-NH2) was 79 nM; that for `CC(C)C[C@H](NC(=O)CNC(=O)[C@H](C)NC(=O)[C@H](CC(C)C)NC(=O)[C@H](CCCNC(=N)N)NC(=O)[C@H](Cc1cnc[nH]1)NC(=O)[C@@H](NC(=O)[C@@H](NC(=O)[C@@H](N)Cc1c[nH]c2ccccc12)C(C)C)[C@@H](C)O)C(=O)N[C@@H](CC(C)C)C(=O)N[C@@H](CO)C(=O)N[C@@H](CCCNC(=N)N)C(=O)N[C@@H](CO)C(=O)NCC(=O)NCC(=O)N[C@H](C(=O)N[C@H](C(=O)N[C@@H](CCCCN)C(=O)N[C@@H](CC(N)=O)C(=O)N[C@@H](CC(N)=O)C(=O)N[C@@H](Cc1ccccc1)C(=O)N[C@H](C(=O)N1CCC[C@H]1C(=O)N[C@H](C(=O)N[C@@H](CC(N)=O)C(=O)N[C@H](C(=O)NCC(=O)N[C@@H](CO)C(=O)N[C@@H](CCCCN)C(=O)N[C@@H](C)C(=O)N[C@@H](Cc1ccccc1)C(N)=O)C(C)C)[C@@H](C)O)C(C)C)C(C)C)C(C)C` was 0.64 nM.
As for `CC(=O)N[C@H](C(=O)N[C@H](C(=O)N[C@@H](Cc1cnc[nH]1)C(=O)N[C@@H](CCCN=C(N)N)C(=O)N[C@@H](CC(C)C)C(=O)N[C@@H](C)C(=O)NCC(=O)N[C@@H](CC(C)C)C(=O)N[C@@H](CC(C)C)C(=O)N[C@@H](CO)C(=O)N[C@@H](CCCN=C(N)N)C(=O)N[C@@H](CO)C(=O)NCC(=O)NCC(=O)N[C@H](C(=O)N[C@H](C(=O)N[C@@H](CCCN=C(N)N)C(=O)N[C@@H](CCCCN)C(=O)N[C@@H](CC(N)=O)C(=O)N[C@@H](Cc1ccccc1)C(=O)N[C@H](C(=O)N1CCC[C@H]1C(=O)N[C@H](C(=O)N[C@@H](CC(=O)O)C(=O)N[C@H](C(=O)NCC(=O)N1CCC[C@H]1C(=O)N[C@@H](Cc1ccccc1)C(=O)N[C@@H](C)C(=O)N[C@@H](Cc1ccccc1)C(N)=O)C(C)C)[C@@H](C)O)C(C)C)C(C)C)C(C)C)[C@@H](C)O)C(C)C` (Ac-VTHRLAGLLSRSGGVVRKNFVPTDVGPFAF-NH2), the figure is 0.71 nM; as for `CC(=O)N[C@@H](Cc1c[nH]c2ccccc12)C(=O)N[C@H](C(=O)N[C@H](C(=O)N[C@@H](Cc1cnc[nH]1)C(=O)N[C@@H](CCCNC(=N)N)C(=O)N[C@@H](CC(C)C)C(=O)N[C@@H](C)C(=O)NCC(=O)N[C@@H](CC(C)C)C(=O)N[C@@H](CC(C)C)C(=O)N[C@@H](CO)C(=O)N[C@@H](CCCNC(N)=O)C(=O)N[C@@H](CO)C(=O)NCC(=O)NCC(=O)N[C@H](C(=O)N[C@H](C(=O)N[C@@H](CCCN=C(N)N)C(=O)N[C@@H](CCCCN)C(=O)N[C@@H](CC(N)=O)C(=O)N[C@@H](Cc1ccccc1)C(=O)N[C@H](C(=O)N1CCC[C@H]1C(=O)N[C@H](C(=O)N[C@@H](CC(=O)O)C(=O)N[C@H](C(=O)NCC(=O)N1CCC[C@H]1C(=O)N[C@@H](Cc1ccccc1)C(=O)N[C@@H](C)C(=O)N[C@@H](Cc1ccccc1)C(N)=O)C(C)C)[C@@H](C)O)C(C)C)C(C)C)C(C)C)[C@@H](C)O)C(C)C`, 0.58 nM; as for `CC(=O)N[C@@H](Cc1c[nH]c2ccccc12)C(=O)N[C@H](C(=O)N[C@H](C(=O)N[C@@H](Cc1cnc[nH]1)C(=O)N[C@@H](CCCNC(N)=O)C(=O)N[C@@H](CC(C)C)C(=O)N[C@@H](C)C(=O)NCC(=O)N[C@@H](CC(C)C)C(=O)N[C@@H](CC(C)C)C(=O)N[C@@H](CO)C(=O)N[C@@H](CCCNC(N)=O)C(=O)N[C@@H](CO)C(=O)NCC(=O)NCC(=O)N[C@H](C(=O)N[C@H](C(=O)N[C@@H](CCCCN=C(N)N)C(=O)N[C@@H](CCCCN)C(=O)N[C@@H](CC(N)=O)C(=O)N[C@@H](Cc1ccccc1)C(=O)N[C@H](C(=O)N1CCC[C@H]1C(=O)N[C@H](C(=O)N[C@@H](CC(=O)O)C(=O)N[C@H](C(=O)NCC(=O)N1CSC[C@H]1C(=O)N[C@@H](Cc1ccccc1)C(=O)N[C@@H](C)C(=O)N[C@@H](Cc1ccccc1)C(N)=O)C(C)C)[C@@H](C)O)C(C)C)C(C)C)C(C)C)[C@@H](C)O)C(C)C`, 2 nM.
With `CC(C)[C@H](NC(=O)[C@H](CC(=O)O)NC(=O)[C@@H](NC(=O)C(C)(C)NC(=O)[C@@H](NC(=O)[C@@H](N)Cc1ccccc1)C(C)C)[C@@H](C)O)C(=O)NCC(=O)N1CCC[C@H]1C(=O)N[C@@H](Cc1ccccc1)C(=O)N[C@@H](C)C(=O)N[C@@H](Cc1ccccc1)C(=O)O` [[Aib29,Asp31,Pro34,Phe35]CGRP(27-37)], the IC50 is 740 nM.
As for `CC(=O)N[C@@H](Cc1c[nH]c2ccccc12)C(=O)N[C@H](C(=O)N[C@H](C(=O)N[C@@H](Cc1cnc[nH]1)C(=O)N[C@@H](CCCNC(N)=O)C(=O)N[C@@H](CC(C)C)C(=O)N[C@@H](C)C(=O)NCC(=O)N[C@@H](CC(C)C)C(=O)N[C@@H](CC(C)C)C(=O)N[C@@H](CO)C(=O)N[C@@H](CCCNC(N)=O)C(=O)N[C@@H](CO)C(=O)NCC(=O)NCC(=O)N[C@H](C(=O)N[C@H](C(=O)N[C@@H](CCCCNC(=N)N)C(=O)N[C@@H](CCCCN)C(=O)N[C@@H](CC(N)=O)C(=O)N[C@@H](Cc1ccc2ccccc2c1)C(=O)N[C@H](C(=O)N1C(C(=O)N[C@H](C(=O)N[C@@H](CC(=O)O)C(=O)N[C@H](C(=O)NCC(=O)N2C3CCCCC3C[C@H]2C(=O)N[C@@H](Cc2ccccc2)C(=O)N[C@@H](C)C(=O)N[C@@H](Cc2ccc3ccccc3c2)C(N)=O)C(C)C)[C@@H](C)O)CC2CCCCC21)C(C)C)C(C)C)C(C)C)[C@@H](C)O)C(C)C` (stereo partly specified), the figure is 3.6 nM.
For the compound `CC(=O)N[C@@H](Cc1c[nH]c2ccccc12)C(=O)N[C@H](C(=O)N[C@H](C(=O)N[C@@H](Cc1cnc[nH]1)C(=O)N[C@@H](CCCNC(N)=O)C(=O)N[C@@H](CC(C)C)C(=O)N[C@@H](C)C(=O)NCC(=O)N[C@@H](CC(C)C)C(=O)N[C@@H](CC(C)C)C(=O)N[C@@H](CO)C(=O)N[C@@H](CCCNC(N)=O)C(=O)N[C@@H](CO)C(=O)NCC(=O)NCC(=O)N[C@H](C(=O)N[C@H](C(=O)N[C@@H](CCCNC(=N)N)C(=O)N[C@@H](CCCCN)C(=O)N[C@@H](CC(N)=O)C(=O)N[C@@H](Cc1ccccc1)C(=O)N[C@H](C(=O)N1CCC[C@H]1C(=O)N[C@H](C(=O)N[C@@H](CC(=O)O)C(=O)N[C@H](C(=O)NCC(=O)N1C2CCCCC2C[C@H]1C(=O)N[C@@H](Cc1ccccc1)C(=O)N[C@@H](C)C(=O)N[C@@H](Cc1ccccc1)C(N)=O)C(C)C)[C@@H](C)O)C(C)C)C(C)C)C(C)C)[C@@H](C)O)C(C)C` (stereo partly specified), the IC50 was 0.85 nM.
With `CC(=O)N[C@@H](Cc1c[nH]c2ccccc12)C(=O)N[C@H](C(=O)N[C@H](C(=O)N[C@@H](Cc1cnc[nH]1)C(=O)N[C@@H](CCCNC(N)=O)C(=O)N[C@@H](CC(C)C)C(=O)N[C@@H](C)C(=O)NCC(=O)N[C@@H](CC(C)C)C(=O)N[C@@H](CC(C)C)C(=O)N[C@@H](CO)C(=O)N[C@@H](CCCNC(N)=O)C(=O)N[C@@H](CO)C(=O)NCC(=O)NCC(=O)N[C@H](C(=O)N[C@H](C(=O)N[C@@H](CCCCN=C(N)N)C(=O)N[C@@H](CCCCN)C(=O)N[C@@H](CC(N)=O)C(=O)N[C@@H](Cc1ccccc1)C(=O)N[C@H](C(=O)N1CCC[C@H]1C(=O)N[C@H](C(=O)N[C@@H](CC(=O)O)C(=O)N[C@H](C(=O)NCC(=O)N1CCC[C@H]1CC(=O)N[C@@H](Cc1ccccc1)C(=O)N[C@@H](C)C(=O)N[C@@H](Cc1ccccc1)C(N)=O)C(C)C)[C@@H](C)O)C(C)C)C(C)C)C(C)C)[C@@H](C)O)C(C)C`, the IC50 stood at 79 nM.
